The source of these data is patent US20260240822A1, “Methods and Compositions for Treating Atopic Dermatitis” (Regranion, LLC, priority 2023, published 2026).

The nature of data set [1]: Skin concentration in punch biopsies of hidradenitis suppurativa subjects, week 16. Format: in vivo, human. The settings on record: oral dosing at 250 mg; skin (16 weeks daily) vs plasma (single dose). An excerpt:
A 16-week treatment, randomized, double-blind, proof-of-concept study was designed to assess the safety and efficacy of Compound I compared to placebo in treating hidradenitis suppurativa. Eligible subjects completed an up-to 4-week screening phase and sequentially be randomized 2:1 to one of two cohorts, treatment cohort (n=10) or placebo-control cohort (n=5), in a 16-week treatment phase followed by a 4-week observational follow-up phase. In the 16-week treatment phase, subjects randomized to the treatment group receive 250 mg Compound I free base in the form of a tablet administered orally once daily. The 250 mg dose was selected based on the results of an earlier oncology trial conducted with doses in excess of 1000 mg/day as a safe minimal dose from which to conduct dose escalation if required. Subjects randomized to the placebo-control group receive placebo treatment once daily (microcrystalline cellulose, mannitol, crospovidone, Opadry II red, magnesium stearate, colloidal silicon dioxide).
The accumulation of Compound I in the skin of human hidradenitis suppurativa of subjects in the treatment cohort was determined. […] FIG. 7 is a graph showing the concentrations of Compound I found in the biopsied tissues in subjects grouped according to their clinical response to Compound I therapy. […]

A further data set has as its system stimulated NHEKs. Particulars: previous concentration studies; used concentration 5 μM; cited from earlier work.
Another data set relates to AD-like inflammation. As to the kind of experiment: MC903 model at independent testing facility (alternative MC903 regimen). Format: in vivo, BALB/c mice. Particulars: oral 20, 50 and 100 mg/kg. As for the experimental part:
To evaluate the feasibility of orally administered Compound I, mice were challenged with 2.5 nmol MC903 for six days and administered 100 mg/kg Compound I by oral gavage once daily throughout the experiment.

Data set [2] has as its system MC903-induced AD-like skin inflammation. As to the kind of experiment: MC903-induced atopic dermatitis mouse model. The class given is in vivo, Female Balb/cAnNRj mice. Particulars: for body weight loss: topical treatment, MC903 model. As for the experimental part:
Punch biopsies were stored in 750 μL RNAlater-ICE (ThermoFisher) at −80° C. for 20 minutes and overnight at −20° C. Then, the biopsies were added to 175 μL SV RNA lysis buffer with β-mercaptoethanol (SV Total RNA Isolation System; Promega) followed by homogenization using TissueLyser (Qiagen, Hilden, Germany). The remaining steps including RNA purification and DNase treatment were conducted following the manufacturer's instructions.
cDNA was generated using total RNA, TaqMan Reverse Transcription Reagents with random hexamers (ThermoFisher) and Peltier Thermal Cycler-200 (MJ Research Inc, Waltham, MA, USA) following the manufacturer's instructions. Real-time PCR was carried out with 20 ng cDNA per 20 μL reaction in StepOnePlus Real-Time PCR system (ThemoFisher) using TaqMan Universal PCR Master Mix, primers and probes (ThermoFisher) for TNF (Hs00174128_m1), ILIB (Hs01555410_m1), IL6 (Hs00174131_m1), TSLP (Hs00263639_m1), CCL17 (Hs00171074_m1), CCL22 (Hs01574247_m1), Il1b (Mm00434228_m1), Il4 (Mm00445259_m1), Il6 (Mm00446190_m1), Il13 (Mm00434204_m1) RPLPO (Hs99999902_m1) and Gapdh (Mm99999915_m1). Three technical replicates for each sample underwent real-time PCR; 2 minutes at 50° C. and 10 minutes at 95° C. followed by 40 cycles of 15 seconds at 95° C. and 1 minute at 60° C. The standard curve method with StepOne Software v2.1 and reference genes (RPLPO and Gapdh) were used to obtain normalised relative expression levels of target genes.^17
Female Balb/cAnNRj (8 weeks old) mice were purchased from Janvier Labs (Le Genest-Saint-Isle, France), and housed in animal facilities at 19-25° C. with 12-hour light/dark cycles and free access to laboratory rodent diet and water. The mice had at least 1 week acclimation period before the experiments started.
Mice were randomly divided to receive: vehicle and drug-vehicle (negative control); MC903 (MedChemExpress, Monmouth Junction, NJ, USA) and drug-vehicle (disease control); MC903 and topical or oral Compound I (Compound I treatment groups); or MC903 and topical dexamethasone (positive control; purchased from Sigma-Aldrich). Four to eight mice were allocated to each group, totalling 76 mice for all experiments.
To induce AD-like skin inflammation, 1 or 2.5 nmol of MC903 in 25 μL absolute ethanol was topically applied once daily to the ventral and dorsal surface of the right ear for six consecutive days. After MC903 challenge, the mice were treated with topical Compound I (1 mg in 25 μL ethanol), oral Compound I (100 mg/kg), topical dexamethasone (20 nmol in 25 μl ethanol), or drug-vehicle (topical ethanol or oral 5% kleptose [HPB, Roquette Pharma, Lestrem, France]). The topical treatments were applied 2 hours post-MC903 challenge, whereas the oral treatments were administered by oral gavage immediately post-MC903 challenge. At the end of the experiment on day 9, clinical photos of the ears were taken and the mice were euthanised by cervical dislocation. Two punch biopsies (4 mm) from the ear were collected for RNA isolation and histological assessment. Ear thickness, the primary clinical endpoint for inflammation, was measured daily with a digital calliper (Mitutoyo Corporation, Kawasaki, Japan), and body weight was measured throughout the study to monitor the welfare of mice. During the experimental procedures, the mice were anesthetized with 2% isoflurane.
Four-millimetres punch biopsies from the ear were fixed in 4% formaldehyde overnight at 4° C., paraffin-embedded, and serially sliced into 4 μm sections subjected to staining procedures. For haematoxylin & eosin (HE) staining, a standard protocol was followed. To detect mast cells, sections were stained with 0.1% toluidine blue solution (Sigma-Aldrich) at pH 2.3 and room temperature for 3 minutes. […]

For data set [3], the system named is primary normal human epidermal keratinocytes (NHEKs) stimulated with TNF/IFNγ or TNF/IL-4. As to the kind of experiment: RT-qPCR of AD-related gene expression in cytokine-stimulated primary human keratinocytes. The class given is cell-based. Particulars: 5 μM, 24 hours. As for the experimental part: (§1) Primary normal human epidermal keratinocytes (NHEKs) were isolated from nine healthy donors as described previously.^13 The keratinocytes were plated in 6-well plates and cultured in keratinocyte SFM (Gibco, ThermoFisher Scientific, Waltham, MA, USA) supplemented with growth factors and 5 μg/ml Gentamicin (Gibco) at 37° C. in a humidified incubator containing 5% CO2 until 60-70% confluency. Subsequently, the keratinocytes were starved for 24 hours in keratinocyte SFM medium without growth factors before the initiation of experiments.
Keratinocytes were washed with phosphate-buffered saline (PBS; Gibco) followed by RNA extraction using SV 96 Total RNA Isolation System (Promega, Madison, WI, USA) per the manufacturers' instructions. NanoDrop 2000 Spectrophotometer (ThermoFisher) was used to determine the RNA concentration and purity.
cDNA was generated using total RNA, TaqMan Reverse Transcription Reagents with random hexamers (ThermoFisher) and Peltier Thermal Cycler-200 (MJ Research Inc, Waltham, MA, USA) following the manufacturer's instructions. […]
The statistical significance threshold was set at P<0.05. Differences between treatment groups in clinical endpoints, mRNA (qPCR) and protein levels (western blot) were analysed by unpaired t-tests for mice and paired t-tests for keratinocytes. […]

Data set [4] can be described thus: Plasma pharmacokinetics after single oral dose in healthy male subjects. The class given is in vivo, human. Particulars: single oral dose 250 mg, read-out: Cmax (median). As for the experimental part: The skin accumulation found in this study was compared to plasma levels of Compound I determined in a previous study in healthy human volunteers. Six healthy male subjects were given a single oral dose of 250 mg Compound I, and plasma samples were collected pre-dose and at 0.25, 0.5, 0.75, 1, 1.5, 2, 2.5, 3, 4, 6, 8, 10, 12, 18, 24, 30, 36, 48, 72 and 96 hours after dosing.

Another data set concerns p65 (subunit of NF-κB). As to the kind of experiment: Western blot of p65 phosphorylation in stimulated NHEKs. Format: cell-based, human. The settings on record: 5 μM, 1 hour. As for the experimental part: as §1
(§2) PBS-washed keratinocytes were added cell lysis buffer with complete Protease Inhibitor Cocktail and phenylmethylsulphonyl fluoride (Sigma-Aldrich). […] The protein concentration was determined by Bradford Protein Assay.
(§3) A total of 20 μg protein extract for each sample was loaded on 10% mini-PROTEAN TGX PreCast Gel (Bio-Rad, Hercules, CA, USA) and separated by gel electrophoresis using Mini Trans-Blot Cell (Bio-Rad). […] Protein bands were detected with an enhanced chemiluminescence (ECL) reaction using Clarity Western ECL Substrate (Bio-Rad) and digitally imaged with C-DiGit Blot Scanner (LI-COR, Lincoln, NE, USA). To normalize the protein expression to β-actin levels, the membranes were stripped and reprobed with an anti-β-actin antibody (A1978; Sigma-Aldrich), which was detected by HRP-conjugated anti-mouse IgG (p0447; Dako, Glostrup, Denmark). […]
(In general: Immunoblotting shows a protein as a band on a membrane.)

The test system of another data set is STAT3. As to the kind of experiment: Western blot of STAT3 phosphorylation in stimulated NHEKs. Particulars: 5 μM, TNF/IFNγ or TNF/IL-4 stimulation, 1 hour. Format: cell-based, human. On the procedure: as §1, §2, §3
The conditions of data set [5]: psoriasis and hidradenitis suppurativa patients; cited from earlier work.
For a further data set, the system named is STAT6. As to the kind of experiment: Western blot of STAT6 phosphorylation in stimulated NHEKs. Particulars: 5 μM, TNF/IL-4 stimulation, 1 hour. Format: cell-based, human. On the procedure: as §1, §2, §3
The subject of another data set is STAT1. As to the kind of experiment: Western blot of STAT1 phosphorylation in stimulated NHEKs. The class given is cell-based, human. The settings on record: 5 μM, 1 hour. On the procedure:
as §1, §2, §3

The mark [6] stands for this setting: topical, 1 nmol MC903, ear biopsies.

One may read the Cmax as the maximum level reached in the sampled fluid or tissue. Regarding `CN(C)c1cc2c(cc1Sc1nc3c(N)nccc3n1CCNCC(C)(C)C)OCO2` [Compound I], the “accumulation in the skin relative to plasma” value in [1] is given as “approximately 100,000 fold”. Further, in the data set on stimulated NHEKs, the “toxicity in stimulated NHEKs” value is listed as 3-6%. Further, in the data set on AD-like inflammation, the “alleviation of AD-like inflammation” value is “dose-dependent improvement”. In addition, the erythema result in data set [2] (oral 100 mg/kg, 2.5 nmol MC903) is “visibly reduced erythema”. In addition, in [2] (oral gavage 100 mg/kg once daily, 2.5 nmol MC903), the “reduction of ear thickening compared with drug-vehicle” value worked out at 28%. The “reduction in ear thickness compared with drug-vehicle” value in data set [2] (topical 1 mg once daily, 1 nmol MC903, day 9) turned out to be 55%. For the same compound, the “suppression of MC903-induced ear thickening” value in data set [2] (topical 1 mg once daily, 2.5 nmol MC903, day 9) is listed as 50%. Also, in data set [2], the body weight loss result was “significantly less weight loss compared with dexamethasone”. The “cytokine expression of Il1b, Il4, Il6 and Il13 in ear tissue compared with drug-vehicle” value in [2] (topical, 1 nmol MC903, RNA sequencing and qPCR) is listed as “significantly reduced”. In addition, the erythema result in data set [2] (topical, 1 nmol MC903, day 9) is listed as “visibly reduced erythema”. In addition, in data set [2] (setting [6]), the “epidermal and dermal thickness (histology)” value is “significantly decreased”; the “immune cell infiltration into the skin (mast cells, Ly6g+ neutrophils, CD4+ T-cells)” value was “significantly suppressed”; the “total number of cells within histological sections” value is listed as “significantly reduced”. Moreover, the “reduction of ear thickness” value in data set [2] (topically delivered, summary of 1 and 2.5 nmol MC903 experiments) is 50-54%. Moreover, the “expression of AD-associated cytokines (TNF, IL1B, IL6) and chemokines (CCL17, CCL22)” value in data set [3] (TNF/IFNγ or TNF/IL-4 stimulation, vs stimulated/vehicle- and stimulated/dexamethasone-treated NHEKs) was “robustly inhibited the expression”. For the same compound, the “expression of TSLP” value in data set [3] (stimulated NHEKs) is on record as “suppressed”. In addition, the Cmax in data set [4] was determined as 46 nM. The “phosphorylation of p65” value with p65 (subunit of NF-κB) is reported as “no significant effects”. The “phosphorylation of STAT3” value with STAT3 was “significantly suppressed”. The “tolerability of oral treatment” value in data set [5] is on record as “well-tolerated”. For the same compound, the “reduction of phosphorylation of STAT6” value in the data set with STAT6 is ~ 20%. For the same compound, in the data set with STAT1, the “phosphorylation of STAT1” value is “no significant effects”.

On to `C[C@@H]1C[C@H]2[C@@H]3CCC4=CC(=O)C=C[C@]4(C)[C@@]3(F)[C@@H](O)C[C@]2(C)[C@@]1(O)C(=O)CO` [dexamethasone, reference compound], for which the body weight loss entry in data set [2] is given as “lost significantly more weight than Compound I-treated mice”.
